From patent EP0350260A2, “New oxamic acid compounds and pharmaceutical composition for use in improvement of damaged cerebral functions of brain” (MEIJI SEIKA KAISHA LTD., priority 1988, dated 1990) come the findings set out here.

The first data set concerns mice having cerebral anoxia experimentally induced under the load of hypobaric hypoxia. The data set is described as follows: Survival time of mice with cerebral anoxia induced under hypobaric hypoxia (Test 1). Type of data set: in vivo. The following applies: 100 mg/kg intraperitoneally, 30 minutes before evacuation to 190 mmHg; 6 ddy mice per group; untreated control group = 100. As to the method:
ddy Mice (6 weeks old, body weight: 25-30 g, each group comprising 6 ddy mice) were administered intraperitoneally with the compounds of the present invention, respectively. Each of the tested compounds of this invention had been beforehand dissolved in redistilled water and the aqueous solution was administered in an amount of 0.1 ml per 10 g body weight. Thirty minutes after the administration, the mice were individually placed in hermetic transparent containers. The containers were rapidly evacuated to 190 mmHg by means of a vacuum pump. Time was measured from the initiation of the evacuation to the death of each mouse due to respiratory failure. That time was recorded as the survival time (seconds) of mice.
The ratios of the survival time of the groups of the treated mice which received the administration of the tested compounds of this invention divided by the survival time of a control group (untreated) which received no administration of the drug were calculated.
`C=CCN(CC=C)C(=O)C(=O)O` [N,N-di-allyloxamic acid]: the “Survival time ratio (control group: 100)” value came to 187.

Turning to `CC(C)N(C(=O)C(=O)O)C(C)C` [N,N-di-isopropyl-oxamic acid, N,N-di-isopropyloxamic acid], the “Survival time ratio (control group: 100)” value was determined as 155.

Regarding `CCCN(CCC)C(=O)C(=O)O` [N,N-di-n-propyl-oxamic acid, N,N-di-n-propyloxamic acid], the “Survival time ratio (control group: 100)” value turned out to be 181.

Regarding `CCCCN(CC)C(=O)C(=O)O` [N-ethyl-N-butyl-oxamic acid, N-ethyl-N-n-butyloxamic acid], the “Survival time ratio (control group: 100)” value is 116.

For the compound `CCCN(CC)C(=O)C(=O)O` [N-ethyl-N-n-propyl-oxamic acid, N-ethyl-N-n-propyloxamic acid], the “Survival time ratio (control group: 100)” value came to 166.

A further data set has as its system ddy mice.
Test: not given
To be noted: mouse, in vivo. The procedure: The toxicity of the compounds of the general formula (I) usable in this invention was evaluated by using N,N-di-isopropyloxamic acid as one example.
As to `CC(C)N(C(=O)C(=O)O)C(C)C` [N,N-di-isopropyl-oxamic acid, N,N-di-isopropyloxamic acid], the “toxicity (survival of mice)” value was “all the mice tolerated it and remained alive”.
